Laboratory results reported in patent publication US5811428A, “Pyrimidine carboxamides and related compounds and methods for treating inflammatory conditions” (Signal Pharmaceuticals, Inc., priority 1995, dated 1998).
Read-outs that look alike come from different tables or passages of the source.

Assays:
NFκB / AP-1 = experiment: Inhibition of the activation of NFκB and AP-1 (luciferase reporter Jurkat T-cells, PMA/PHA stimulated); assay type: cell-based, human; settings: stable Jurkat T-cells, read-out: NFκ/AP-1 IC50
Protocol: Stable human Jurkat T-cells containing an NFκB binding site (from the MHC promoter) fused to a minimal SV-40 promoter driving luciferase expression were used in this experiment. Cells were split to 3×10^5 cells/mL every 2-3 days (cell concentration should not exceed 1×10^6 cells/mL to keep the cells proliferating in log phase). These cells were counted, resuspended in fresh medium containing 10% Serum-Plus at a density of 1×10^6 cells/mL and plated in 96 well round bottom plates (200 μL per well) 18 hours prior to starting the experiment.
Compounds of this invention, dissolved in dimethyl sulfoxide (3.3, 0.33 and 0.03 μg/mL), were then added to the 96 well plates containing the cells and the plates are incubated for 0.5 h at 37° C. Then 50 ng/mL of phorbol 12-myristate-13-acetate (PMA) and 1 μg/mL of phytohemagglutinin (PHA) was added to each well and the cells were incubated for an additional 5 h at 37° C. The plates were centrifuged at 2200 RPM for 3 minutes at room temperature and then the medium was removed. To each well was added 60 μL of cell lysis buffer and the plates were left at room temperature for 0.25 h. Then 40 μL of each cell extract was transferred to a black 96 well plate and 50 μL of luciferase substrate buffer was added. Luminescence was immediately measured using a Packard TopCount.
For AP-1, the assay was run as described above for NFκB except stable Jurkat T-cells were used that contained a the -73 collagenase promoter driving luciferase expression. In addition, the concentration of PMA used was 5 ng/mL.

β-actin = β-actin control cell line (effects on transcription); assay type: cell-based; settings: control for effects on transcription; FIG. 3
Text: The results of the above assays for a representative compound of this invention, 2-chloro-4-trifluoromethyl-5-N-(3',5'-bistrifluoromethylphenyl)pyrimidine carboxamide, as percent inhibition versus control are presented in FIG. 3. This figure also indicates activity of β-actin which was employed in these assays as a control cell line indicating effects on transcription.

[1] = tested on: alloantigen-induced PLN proliferation; experiment: Murine popliteal lymph node (PLN) assay, graft vs. host model; assay type: in vivo, C3H mice (donor BALB/c mice)
Text: The murine popliteal lymph node (PLN) assay is a graft vs. host model that predicts activity of compounds in blocking human transplant rejection. The delayed-type hypersensitivity response to oxazolone is a standard contact sensitivity model. Both of these models are used routinely to evaluate compounds that are used clinically.
Spleens were removed from donor BALB/c mice and splenocytes were isolated then irradiated (3,000 rads) to prevent donor cell proliferation. After washing and adjusting cell density, 2.5×10^6 cells were injected subcutaneously into the left hind footpad of C3H mice. On day 4, the mice were sacrificed and left popliteal lymph nodes (PLNs) were weighed.
For doses of 10, 20 and 30 mg/kg, appropriate dilutions of the stock solution were made so that 0.1 mL/10 g body weight was administered by intraperitoneal injection.

[2] = tested on: DTH response to oxazolone; experiment: Delayed type hypersensitivity study (oxazolone contact sensitivity model); assay type: in vivo, mice; settings: for Right-Left Ear (mean ± SEM): ear thickness difference 24 h after challenge, vehicle 0.30 ± 0.02
Protocol: On day 0, oxazolone (100 μL of a 3% solution) was applied to the shaved abdomen of mice. On day 7, a challenge application of oxazolone was applied (10 μL) around the right ear. […] It was prepared immediately prior to use by suspending it in 0.25% methyl cellulose (Sigma) using a glass-teflon homogenizer. For each dose, 0.1 mL/10 g body weight of the suspension was administered. The compound was prepared at the highest concentration for that study and appropriate dilutions of the stock solution were made so that 0.1 mL/10 g body weight was administered. Twenty four hours later, the difference in right vs. left ear thickness was measured.

[3] = tested on: alloantigen-induced PLN proliferation; settings: Morris et al., Transplantation Proceedings 22(Suppl. 1):110-112, 1990; cited from earlier work
[4] = tested on: DTH response to oxazolone; settings: Morris et al., Transplantation Proceedings 22(Suppl. 1):110-112, 1990; cited from earlier work

Row | Compound | IC50 (NFκB / AP-1; Homo sapiens) [nM] | also measured
1 | O=C(Nc1cc(Cl)c(Cl)c(Cl)c1)c1cnc(Cl)nc1C(F)(F)F [Example 6, 2-CHLORO-4-TRIFLUOROMETHYL-5-N-(3',4',5'-TRICHLOROPHENYL)PYRIMIDINE CARBOXAMIDE] | 800 | –
2 | Cc1nc(Cl)ncc1C(=O)Nc1cc(C(F)(F)F)cc(C(F)(F)F)c1 [Example 39, 2-CHLORO-4-METHYL-5-N-[3',5'-BIS(TRIFLUOROMETHYL)PHENYL]PYRIMIDINE CARBOXAMIDE] | 75 | –
3 | Cc1nc(Cl)nc(Cl)c1C(=O)Nc1cc(C(F)(F)F)cc(C(F)(F)F)c1 [Example 15, 5-N-[3',5'-BIS(TRIFLUOROMETHYL)PHENYL]2,4-DICHLORO-6-METHYLPYRIMIDINE CARBOXAMIDE] | 800 | –
4 | NC(=O)c1cc(NC(=O)c2cnc(Cl)nc2C(F)(F)F)cc(C(F)(F)F)c1 [Example 11, 2-CHLORO-4-TRIFLUOROMETHYL-5-N-(3'-TRIFLUOROMETHYL-5'-CARBOXAMIDEPHENYL) PYRIMIDINE CARBOXAMIDE] | 5000 | –
5 | O=C(Nc1cc(C(F)(F)F)cc(C(F)(F)F)c1)c1cnc(Cl)nc1C(F)(F)F [Example 1, 2-CHLORO-4-TRIFLUOROMETHYL-5-N-[3',5'-BIS(TRIFLUOROMETHYL)PHENYL]PYRIMIDINECARBOXAMIDE] | 30 | activity of β-actin (control cell line) (β-actin): lack of β-actin activity; inhibition of PLN proliferation ([1]; 10 mg/kg, once daily intraperitoneal, day 0 through day 4): 52%; suppression of alloantigen-induced PLN proliferation (in words) ([1]; 10, 20 and 30 mg/kg i.p.): dose-dependent suppression of alloantigen-induced PLN proliferation; Right-Left Ear (mean ± SEM) ([2]; 10 mg/kg (i.p.)): 0.27 ± 0.01; animal deaths during study ([2]; 30 mg/kg (i.p.)): One animal died during study; Right-Left Ear (mean ± SEM) ([2]; 30 mg/kg (i.p.)): 0.13 ± 0.02; attenuation of the delayed-type response to oxazolone ([2]; 30 mg/kg i.p.): 56%
6 | 2-[N-(1-AMINOCITRACONAMIDE)]-4-TRIFLUOROMETHYL-5-[N-(3',5'-DICHLOROPHENYL)]-PYRIMIDINE-5-CARBOXAMIDE [Example 45] | – | IC50 (NFκB / AP-1): 2000 nM
7 | O=C(Nc1cc(C(F)(F)F)cc(C(F)(F)F)c1)c1cnc(Cl)nc1Cl [Example 41, 2,4-DICHLORO-5-N-[3',5'-BIS(TRIFLUOROMETHYL)PHENYL]PYRIMIDINE-5-CARBOXAMIDE] | 600 | –
8 | CN(C(=O)c1cnc(Cl)nc1C(F)(F)F)c1cc(Cl)cc(Cl)c1 [Example 13, 2-CHLORO-4-TRIFLUOROMETHYL-5-N-(3',5'-DICHLOROPHENYL)-5-N-(METHYL)PYRIMIDINE CARBOXAMIDE] | 5000 | –
9 | CCOC(=O)c1cc(NC(=O)c2cnc(Cl)nc2C(F)(F)F)cc(C(F)(F)F)c1 [Example 12, 2-CHLORO-4-TRIFLUOROMETHYL-5-N-(3'-TRIFLUOROMETHYL-5'-ETHOXYCARBONYLPHENYL)PYRIMIDINE CARBOXAMIDE] | 400 | –
10 | O=C(Nc1cc(C(F)(F)F)cc(C(F)(F)F)c1)c1cnc(Cl)nc1-c1ccccc1 [Example 43, 2-CHLORO-4-PHENYL-5-N-[3',5'-BIS(TRIFLUOROMETHYL)PHENYL]PYRIMIDINE CARBOXAMIDE] | 500 | –
11 | O=C(Nc1ccc(C(F)(F)F)cc1)c1cnc(Cl)nc1C(F)(F)F [Example 2, 2-CHLORO-4-TRlFLUOROMETHYL-5-N(4'-TRIFLUOROMETHYLPHENYL)PYRIMIDINE CARBOXAMIDE] | 750 | –
12 | N#Cc1ncc(C(=O)Nc2cc(C(F)(F)F)cc(C(F)(F)F)c2)c(C(F)(F)F)n1 [Example 42, 2-CYANO-4-TRIFLUOROMETHYL-5-N-[3',5'-BIS(TRIFLUOROMETHYL)PHENYL]PYRIMIDINE CARBOXAMIDE] | > 10000 | –
13 | CC(=O)Nc1cc(NC(=O)c2cnc(Cl)nc2C(F)(F)F)ccc1F [Example 10, 2-CHLORO-4-TRIFLUOROMETHYL-5-N-(3'-N-ACYL-4'-FLUORO-ANILINE)PYRIMIDINE CARBOXAMIDE] | 1000 | –
14 | O=P1(N(CCCl)CCCl)NCCCO1 (stereo not shown) [Cyclophosphamide, reference compound] | – | Right-Left Ear (mean ± SEM) ([2]; 50 mg/kg (i.p.)): 0.08 ± 0.01; attenuation of the delayed-type response to oxazolone ([2]; 50 mg/kg i.p.): 73%; activity in the PLN model (in words) [3]: active; activity in the contact sensitivity model (in words) [4]: active
15 | O=C(Nc1cc(Cl)cc(Cl)c1O)c1cnc(Cl)nc1C(F)(F)F [Example 8, 2-CHLORO-4-TRIFLUOROMETHYL-5-N-(3',5'-DICHLORO-6'-HYDROXYPHENYL)PYRIMIDINE CARBOXAMIDE] | 6000 | –
